The source of these data is US10912832B2, “Multi-drug delivery system and uses thereof” (Academia Sinica, priority 2014, dated 2021).

Experiment [1] deals with apoptotic cells at the HA/AGP4 injection site in the ischemic leg muscle. Description: HLI model, PEG-IGF-1: TUNEL assay of ischemic leg muscle.
Excerpt: The HLI model was created by performing the left femoral artery and iliac artery ligation in mice and then cut to induce hindlimb ischemia (Limbourg et al., Nat. Protocols (2009) 4, 1737-1748.). The administrations for the experimental mice were divided into 3 parts: PEG-IGF-1, PEG-G-CSF, and the combined treatment. The treatment of PEG-IGF-1 and PEG-G-CSF are including five groups: Sham, HLI with the treatment of, 2% HA alone plus therapeutics or HA with AGP4 and followed by PBS or therapeutics. […]
The fixed distal calf and thigh muscles were deparaffinized, rehydrated and boiled in 10 mM sodium citrate (pH 6.0) for 10 minutes, followed by incubation with antibodies against tropomyosin (DHSB, Iowa city, Iowa, USA), WGA and isolectin (Invitrogen, Grand Island, N.Y., USA) at 4° C. overnight, and then incubated with Alexa Fluor 488- or 568-conjugated secondary antibodies (Invitrogen, Carlsbad, Calif., USA). After staining with DAPI (Sigma-Aldrich, St. Louis, Mo., USA), sections were mounted and observed under confocal microscope (LSM 700, Carl Zeiss MicroImaging, Germany) and fluorescence microscope. The capillary and arteriole densities at the border zone were measured and images were taken from 8 randomly-selected ischemic areas (200× magnification) in each sample and quantification was performed by manually counting each section; the 8 values were averaged. […]
The subject of experiment [2] is HLI mouse model. Put plainly: Hindlimb ischemia (HLI) model, PEG-IGF-1: laser Doppler blood flow and limb appearance. The class given is in vivo, mice. As for the experimental part:
(§1) Microvascular blood flow was measured on a laser Doppler imager (Moor Instrument, UK). The blood flow before surgery, 1 day afterwards, every week for the following 4 weeks was recorded for both limbs and before sacrificing the mice. The data are presented as the blood flow ratio of the ischemia limb (left) to the normal limb (right).

The test system of experiment [3] is HLI mouse model. Put plainly: HLI model, PEG-G-CSF: laser Doppler blood flow and limb appearance. The experiment is classed as in vivo, mice. Conditions: HA-alone + PEG-G-CSF. Here is the method:
as §1
(§2) Results are depicted in FIGS. 5B to 5C.

Experiment [4] has as its system hematopoietic stem cells (HSCs) and endothelial progenitor cells (EPCs). Put plainly: HLI model, PEG-G-CSF: anti-CD34 / anti-CD133 staining of recruited cells. The experiment is classed as in vivo, mice. The following applies: HA/AGP4 + PEG-G-CSF vs HA-alone+PEG-G-CSF and HA/AGP4+PBS.
Excerpt: as §2

Regarding “PEG-IGF-1: PEGylated Insulin Growth Factor-1”, the “number of apoptotic cells (TUNEL)” value in experiment [1] (HA-alone group, absence of AGP4) is “failed to reduce the number of apoptotic cells”; in experiment [1] (PEG-IGF-1 after administration of HA/AGP4) it was “significant reduction in apoptotic cells”. The results for the nail discoloration result in experiment [2] (HA-alone + PEG-IGF-1) and in experiment [2] (PEG-IGF-1 administered after HA/AGP4) were “signs of nail discoloration” and “not obvious”, respectively. Further, the “blood flow of ischemic leg compared with sham group” value in experiment [2] (HA-alone i.m. + PEG-IGF-1 iv, Day 1 or Day 2) is “no significant improvement”. Further, the “blood flow at the ischemic leg” value in experiment [2] (HA/AGP4 i.m. followed by PEG-IGF-1 iv (30 μg, three doses at 8 hrs interval)) was “did not improve the blood flow”. Further, in experiment [2] (PEG-IGF-1 injections after HA/AGP4), the ischemic damage entry is on record as “minimized the ischemic damage”.

B1: PEG-G-CSF: PEGylated Granulocyte Colony-Stimulating Factor (protein, UniProt P09919 31-207, looked up)
Granulocyte …: TPLGPASSLPQSFLLKCLEQVRKIQGDGAALQEKLVSECATYKLCHPEELVLLGHSLGIPWAPLSSCPSQALQLAGCLSQLHSGLFLYQGLLQALEGISPELGPTLDTLQLDVADFATTIWQQMEELGMAPALQPTQGAMPAFASAFQRRAGGVLVASHLQSFLEVSYRVLRHLAQP
modifications: PEGylated
notes: PEGylated Granulocyte Colony-Stimulating Factor
With B1, the nail discoloration result in experiment [3] was “nail discoloration was seen”. Besides, the “number of recruited cells at the HA/AGP4 injection sites” value in experiment [4] is “increased the number of HSCs (CD133) and ECs (CD34)”.
